Measured values from paper PMC11836371, “Virtual fragment screening for DNA repair inhibitors in vast chemical space” (Nature Communications, 2025).
Several values for one entry are separate records, joined by “and”; a condition that tells them apart may be missing. Equal values may be shown once.

These molecules were tested against human OGG1 enzyme (Homo sapiens, UniProt O15527) (assay: Differential scanning fluorimetry (DSF) thermal shift assay). Settings: 99 μM.
Format: binding
Procedure: The temperature was increased from 20 °C to 85 °C with 10 readings/degree. Tm values were calculated using an excel template and fitting to the Boltzmann equation in Prism v.6.07 (GraphPad Software).

Sequence of human OGG1 enzyme (O15527 whole entry): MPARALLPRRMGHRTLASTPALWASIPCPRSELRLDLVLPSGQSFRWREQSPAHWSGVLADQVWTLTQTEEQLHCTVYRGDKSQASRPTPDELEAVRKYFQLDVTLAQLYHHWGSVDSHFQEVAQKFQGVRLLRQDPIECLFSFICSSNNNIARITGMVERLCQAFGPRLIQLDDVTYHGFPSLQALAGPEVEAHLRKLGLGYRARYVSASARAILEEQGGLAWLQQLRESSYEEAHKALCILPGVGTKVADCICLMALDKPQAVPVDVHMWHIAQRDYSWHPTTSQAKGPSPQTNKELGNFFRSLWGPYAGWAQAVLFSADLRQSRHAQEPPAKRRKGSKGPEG

Compound	∆Tm (K)
O=C(Cn1c(C(F)(F)F)nc2ccccc21)NCc1ccccc1 [ZINC000032814728]	0.79 K
C[C](CNC(=O)c1cn2c(n1)CCC2)Oc1ccc(Cl)cc1 [ZINC000047544921]	0.05 K
C[C](CNC(=O)c1cn(-c2ccccc2)nn1)Oc1ccc(C)cc1 [ZINC000080662795]	-0.11 K
CC(C)(NC(=O)NCc1ccco1)c1ccc(Br)cc1 [ZINC000088254610]	0.27 K
C[C](NC(=O)c1ccc(C)nc1)c1cnn(-c2ccc(F)cc2)c1C [ZINC000142711832]	-0.11 K
c1cnc2ccc(CNc3nnc4ccccn34)cc2c1 [ZINC000155922887]	inactivea
C=Cc1ccc(C(=O)NCc2cn(-c3ccccc3)nc2C)cc1 [ZINC000192206237]	0.83 K
Cn1ncc(NC(=O)N[C]2COc3ccc(Cl)cc32)c1C(F)F [ZINC000337657385]	-0.16 K
Cc1ccn2c(NC(=O)C3(Oc4ccc(Cl)cc4)CC3)nnc2c1 [ZINC000341519123]	0.37 K
C[C](CCc1ccccc1)C(=O)N1CC(c2ccccc2)C1 [ZINC000342133714]	0.08 K
CN1C(=O)Cc2cc(Nc3ncnc4c(F)cccc34)ccc21 [ZINC000350560229]	-0.01 K
Cn1c(=O)n(C)c2cc(Nc3ncnc4ccccc34)ccc21 [ZINC000358521717]	0.43 K
Cn1ncc2c(Nc3cccc(-c4cccs4)c3)ncnc21 [ZINC000445022399]	-0.23 K
COc1ccc([C]2CCCCCN2C(=O)Nc2noc(C)c2C)cc1 [ZINC000455661485]	-0.14 K
COc1ccc(C2(CNC(=O)c3ccc(F)s3)CCC2)cc1 [ZINC000572161337]	0.17 K

Continued, values first:

∆Tm (K)	Compound
0.39 K	Cc1ccc(CNC(=O)Nc2cnn(C)c2C(F)(F)F)c(C)c1 [ZINC000000241283]
0.10 K and 0.1 K	O=C(NCc1ccc2oc(=O)[nH]c2c1)c1cc(C2CC2)on1 [ZINC000025095824]
-0.07 K	O=C(NCc1cnn(-c2ccccc2)c1)c1cc(C2CC2)no1 [ZINC000045518705]
Inactivea	CCc1ccc(CC(=O)Nc2nnc(C3CC3)n2C)cc1 [ZINC000157183023]
0.23 K	O=C(NC1CN(C(=O)c2ccc(Cl)s2)C1)c1ccc(Cl)o1 [ZINC000357905855]
-0.04 K	Cn1nc(Nc2ncnc3cc(F)c(F)cc23)cc1C1CC1 [ZINC000439491208]
-0.92 K	O=C(NCc1nc(-c2ccccc2)no1)c1cn(-c2ccccc2)nn1 [ZINC000507023994]
-0.38 K	COc1ccc2[nH]cc(CC(=O)Nc3nnc4cc(C)ccn34)c2c1 [ZINC000520908378]

Same assay, conditions: 495 µM

Compound	∆Tm (K)
Cc1csc(NC(=O)c2ccc(N)cc2)n1 [ZINC000005740683]	0.52
Cc1cnc(Nc2ncnc3ccccc23)s1 [ZINC000031949200]	-0.03
Cc1csc(Nc2ncnc3sccc23)n1 [ZINC000163077816]	-0.51
COCc1csc(NCc2ccccc2)n1 [ZINC000196610182]	-0.06
CC1CC1CNC(=O)C1CCc2cccnc21 (stereo not drawn) [ZINC000341791847]	0.38
Cc1csc(NC(=O)N2CC(C)C(O)C2)n1 (stereo not drawn) [ZINC000350512979]	0.07
CC(=O)Nc1nc(-c2ccc(Cl)cc2)n[nH]1 [ZINC000517746346]	-0.15

Second part, the molecule after the results:

∆Tm (K)	Compound
0.35	Cc1ccc(NC(=O)Nc2c[nH]nc2C)s1 [ZINC000075413056]
0.67	O=C(NCc1ccccc1O)c1ccc(F)cc1 [ZINC000082283111]
0.26	Cc1n[nH]cc1CNC(=O)C1Cc2ccccc21 (stereo not drawn) [ZINC000088452370]
0.08	Cc1n[nH]cc1CNC(=O)C(C)c1ccccc1 (stereo not drawn) [ZINC000182379077]
-0.01	COc1ccc(F)cc1CNC(=O)c1cn[nH]c1 [ZINC000188683358]
0.18	CCCC1CCCC1C(=O)NCc1c[nH]nc1C (stereo not drawn) [ZINC000294547394]
